This is an account of results in publication PMC9305358 (The Journal of Biological Chemistry, 2022).

One experiment addresses FITC-casein. The experiment in a line: fluorescence polarisation. A general note: In fluorescence polarisation assays a small probe gives low polarisation when free and higher when bound to something large.
Experiment [1] deals with ClpC1-F444S. Format: biochemical, Mycobacterium tuberculosis.
Experiment [2] has as its system ClpC1-F444S. It counts as biochemical, Mycobacterium tuberculosis. The source holds these as a separate data set.
The test system of another experiment is ClpC1-E288A. It counts as biochemical, Mycobacterium tuberculosis.
A further experiment deals with ClpC1-E626A. Format: biochemical, Mycobacterium tuberculosis.
The test system of experiment [3] is ClpC1-WT–ClpP1P2. Format: biochemical, Mycobacterium tuberculosis.
Experiment [4] deals with ClpC1-F444S–ClpP1P2. It counts as biochemical, Mycobacterium tuberculosis.
For another experiment, the system named is ClpC1-E288A with Sa ClpP. It counts as biochemical, Mycobacterium tuberculosis ClpC1; Staphylococcus aureus ClpP.
Another experiment concerns ClpC1-E626A with Sa ClpP. It counts as biochemical, Mycobacterium tuberculosis ClpC1; Staphylococcus aureus ClpP.
The test system of experiment [5] is ClpC1-WT–ClpP1P2. Format: biochemical, Mycobacterium tuberculosis. As to conditions: pH 7.5.
The test system of experiment [6] is ClpC1-F444S–ClpP1P2. Format: biochemical, Mycobacterium tuberculosis. The source holds these as a separate data set.
For the next experiment, the system named is ClpC1-WT–P1P2. Format: biochemical, Mycobacterium tuberculosis.
Experiment [7] relates to ClpC1-F444S–ClpP1P2. Format: biochemical, Mycobacterium tuberculosis. The source holds these as a separate data set.
A further experiment relates to ClpC1-WT and ClpP1P2. Format: biochemical, Mycobacterium tuberculosis.
The test system of another experiment is ClpC1-F444S and ClpP1P2. Format: biochemical, Mycobacterium tuberculosis.
A further experiment deals with ClpC1–Sa ClpP. Format: biochemical, Mycobacterium tuberculosis ClpC1; Staphylococcus aureus ClpP.
The subject of a further experiment is Mtb cells. As to conditions: ref [19], cited from earlier work.
For another experiment, the system named is NMtb–ClpC. As to conditions: ref [26]; cited from earlier work.
A further experiment has as its system Sa ClpC. As to conditions: ref [26]; cited from earlier work.

As a reminder, the Kd is the free concentration of one partner at which half of the binding sites on the other are occupied at equilibrium, for simple one-to-one binding. A higher Kd goes with weaker binding. Substance “ATPase-deficient double Walker B variant ClpC1-E288A-E626A (from UniProt P9WPC9 1-848) (enzyme)” displayed a Kd in the experiment with FITC-casein of 1000 nM.

Consider CyclomarinA [CymA], for which, in the experiment with ClpC1-F444S [1], the “change of mass profile” value is given as “No major changes in mass profiles”. In addition, in the experiment with ClpC1-F444S [2], the “change of crosslink pattern / hexamer level” value was “remained the same”. Also, the “effect on ATP hydrolysis of ClpC1-E288A” value in the experiment with ClpC1-E288A is on record as “stimulated ATP hydrolysis of ClpC1-E288A”. Moreover, the “effect on ATP hydrolysis of ClpC1-E626A” value in the experiment on ClpC1-E626A is recorded as “but not ClpC1-E626A”. In the experiment on ClpC1-WT–ClpP1P2 [3], the “inhibition of ClpC1-WT–ClpP1P2 activity” value is on record as “did not observe strong inhibition”. Besides, the “increase of basal FITC-casein degradation activity” value in the experiment with ClpC1-WT–ClpP1P2 [3] (pH 7.5) is “fourfold”. The “effect of CymA on FITC-casein degradation by ClpC1-F444S–ClpP1P2” value in the experiment on ClpC1-F444S–ClpP1P2 [4] is given as “further enhanced”. Also, the “effect on FITC-casein degradation” value in the experiment with ClpC1-E288A with Sa ClpP and in the experiment with ClpC1-E626A with Sa ClpP was “did not enhance FITC-casein degradation” each time. Also, in the experiment with ClpC1-WT–ClpP1P2 [5], the “enhancement of GFP-SsrA degradation” value worked out at 1.8 fold. The “effect of CymA on GFP-SsrA degradation by ClpC1-F444S–ClpP1P2” value with ClpC1-F444S–ClpP1P2 [6] is recorded as “slightly reduced”. The “effect on VapB15 degradation” value is reported as “minor inhibition” in the experiment with ClpC1-WT–P1P2 and “inhibitory effect” in the experiment on ClpC1-F444S–ClpP1P2 [7]. For the same substance, the “enhancement of FR-L-GFP degradation rate by CymA” value with ClpC1-WT and ClpP1P2 was 1.6 fold. Further, the “reduction of ClpS-dependent FR-L-GFP degradation activity of ClpC1-F444S by CymA” value in the experiment with ClpC1-F444S and ClpP1P2 is recorded as 2.3 fold. Moreover, the “effect on FITC-casein degradation by ClpC1–Sa ClpP” value in the experiment with ClpC1–Sa ClpP is recorded as “comparable to those determined for ClpC1–ClpP1P2 complexes”. In the experiment on Mtb cells ([20], [21], [22]), the “toxicity to Mtb cells” value is recorded as “highly toxic to Mtb cells”. For the same substance, in the experiment with Mtb cells, the “cellular toxicity in Mtb cells” value is “severe cellular toxicity”. The “effect on ATPase and proteolytic activities of NMtb–ClpC” value in the experiment with NMtb–ClpC was “increases both ATPase and proteolytic activities”. Besides, the “sensitivity of Sa ClpC WT with native NTD to CymA” value in the experiment with Sa ClpC is on record as “insensitive”.
